Data on six compounds can be found in patent publication US20200339604A1, “PYRAZOLOPYRIMIDINE COMPOUNDS AS JAK INHIBITORS” (Genentech, Inc., priority 2018, published 2020).

Experiment [1] addresses T1, isolated recombinant JAK1 kinase domain (Homo sapiens, UniProt P23458).
T1 construct: isolated recombinant JAK1 and JAK2 kinase domain
Put plainly: JAK enzyme assay, JAK1 kinase domain (Caliper LabChip). The class given is biochemical. To be noted: 1.5 nM JAK1, ATP 25 μM, Morrison tight binding model. The procedure: (§1) JAK Enzyme Assays were Carried Out as Follows:
(§2) The activity of the isolated recombinant JAK1 and JAK2 kinase domain was measured by monitoring phosphorylation of a peptide derived from JAK3 ([…] fluorescently labeled on the N-terminus with 5-carboxyfluorescein) using the Caliper LabChip® technology (Caliper Life Sciences, Hopkinton, Mass.). To determine inhibition constants (K), compounds were diluted serially in DMSO and added to 50 μL kinase reactions containing purified enzyme (1.5 nM JAK1, or 0.2 nM JAK2), 100 mM HEPES buffer (pH 7.2), 0.015% Brij-35, 1.5 μM peptide substrate, ATP (25 μM), 10 mM MgCl2, 4 mM DTT at a final DMSO concentration of 2%.
(§3) Reactions were incubated at 22° C. in 384-well polypropylene microtiter plates for 30 minutes and then stopped by addition of 25 µL of an EDTA containing solution (100 mM HEPES buffer (pH 7.2), 0.015% Brij-35, 150 mM EDTA), resulting in a final EDTA concentration of 50 mM. After termination of the kinase reaction, the proportion of phosphorylated product was determined as a fraction of total peptide substrate using the Caliper LabChip® 3000 according to the manufacturer's specifications. K values were then determined using the Morrison tight binding model (Morrison, J. F., Biochim. Biophys. Acta. 185:269-296 (1969); William, J. W. and Morrison, J. F., Meth. Enzymol., 63:437-467 (1979)) modified for ATP-competitive inhibition [Ki=Ki, app/(1+[ATP]/Km,app)].

Experiment [2] has as its target T2, isolated recombinant JAK2 kinase domain (Homo sapiens, UniProt O60674).
T2 construct: isolated recombinant JAK1 and JAK2 kinase domain
Nature of the experiment: JAK enzyme assay, JAK2 kinase domain (Caliper LabChip). The class given is biochemical. To be noted: 0.2 nM JAK2, ATP 25 μM, Morrison tight binding model. As for the experimental part:
as §1, §2, §3

T1 sequence (P23458 875-1153 limits assumed): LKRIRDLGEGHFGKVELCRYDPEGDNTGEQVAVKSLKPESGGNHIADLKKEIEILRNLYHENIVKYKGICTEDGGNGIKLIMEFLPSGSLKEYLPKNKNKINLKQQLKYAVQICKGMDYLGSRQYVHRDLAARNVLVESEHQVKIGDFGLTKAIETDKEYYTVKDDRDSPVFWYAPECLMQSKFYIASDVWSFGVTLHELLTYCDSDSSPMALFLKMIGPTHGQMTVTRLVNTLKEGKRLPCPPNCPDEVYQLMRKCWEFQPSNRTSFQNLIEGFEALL
T2 sequence (O60674 849-1124 limits assumed): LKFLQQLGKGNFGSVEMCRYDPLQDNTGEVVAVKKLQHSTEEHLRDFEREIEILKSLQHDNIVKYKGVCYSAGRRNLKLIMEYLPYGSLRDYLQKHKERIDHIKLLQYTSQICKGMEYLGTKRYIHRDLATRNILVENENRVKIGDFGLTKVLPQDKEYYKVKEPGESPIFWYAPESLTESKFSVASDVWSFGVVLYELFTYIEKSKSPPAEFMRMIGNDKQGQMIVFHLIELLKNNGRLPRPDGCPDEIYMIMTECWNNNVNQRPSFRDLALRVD

Regarding `CN1CCC(n2cc(NC(=O)c3cnn4cccnc34)c(-c3cc4c(cc3OC(F)F)NCCS4)n2)C1=O` (single isomer, unassigned) [Example 12], the figures for the Ki in experiment [1] and in experiment [2] were 0.15 nM and 0.11 nM, respectively.
For `O=C(Nc1cn(C2CCN(CCN3CCOCC3)C2=O)nc1-c1cc(Cl)ccc1OC(F)F)c1cnn2cccnc12` (single isomer, unassigned) [Example 15, N-[3-[5-chloro-2-(difluoromethoxy)phenyl]-1-[1-(2-morpholinoethyl)-2-oxo-pyrrolidin-3-yl]pyrazol-4-yl]pyrazolo[1,5-a]pyrimidine-3-carboxamide], the figures for the Ki in experiment [1] and in experiment [2] were 4.4 nM and 1 nM, respectively.
The matching figures for `O=C(Nc1cn(C2CCOC2=O)nc1-c1cc2c(cc1OC(F)F)NCCS2)c1cnn2cccnc12` (single isomer, unassigned) [Example 33, N-[3-[6-(difluoromethoxy)-3,4-dihydro-2H-1,4-benzothiazin-7-yl]-1-(2-oxotetrahydrofuran-3-yl)pyrazol-4-yl]pyrazolo[1,5-a]pyrimidine-3-carboxamide]: 0.17 nM and 0.095 nM.
As to `O=C(Nc1cn(C2CCOC2=O)nc1-c1cc2c(cc1OC(F)F)NCCS2)c1cnn2cccnc12` (single isomer, unassigned) [Example 34, N-[3-[6-(difluoromethoxy)-3,4-dihydro-2H-1,4-benzothiazin-7-yl]-1-(2-oxotetrahydrofuran-3-yl)pyrazol-4-yl]pyrazolo[1,5-a]pyrimidine-3-carboxamide], the Ki – broadly, the dissociation constant of the complex between target and ligand, obtained from inhibition or displacement – in experiment [1] turned out to be 0.092 nM; in experiment [2], 0.056 nM.
The matching figures for `O=C(Nc1cn(C2CCOC2=O)nc1-c1cc2c(cc1OC(F)F)NCCO2)c1cnn2cccnc12` (single isomer, unassigned) [Example 38, N-[3-[6-(difluoromethoxy)-3,4-dihydro-2H-1,4-benzoxazin-7-yl]-1-(2-oxotetrahydrofuran-3-yl)pyrazol-4-yl]pyrazolo[1,5-a]pyrimidine-3-carboxamide]: 0.6 nM and 0.42 nM.
The matching figures for `O=C(Nc1cn(C2CCOC2=O)nc1-c1cc2c(cc1OC(F)F)NCCO2)c1cnn2cccnc12` (single isomer, unassigned) [Example 39, N-[3-[6-(difluoromethoxy)-3,4-dihydro-2H-1,4-benzoxazin-7-yl]-1-(2-oxotetrahydrofuran-3-yl)pyrazol-4-yl]pyrazolo[1,5-a]pyrimidine-3-carboxamide; formic acid]: 0.32 nM and 0.29 nM.
